A value given as a limit tells only on which side of the number the result lay.

What is called IC50 is the concentration at which inhibition is half-maximal.

The experiment is described as follows: Concentration required for 50% inhibition of growth of AA8 cells following 4 hr drug exposure. It is filed as functional, cell-based. The settings on record: Cricetulus griseus, CHO-AA8, 4 h.

Regarding `COc1cc2cc(C(=O)N3CC(CCl)c4ccc([N+](=O)[O-])cc43)[nH]c2c(OC)c1OC` (stereo not drawn), the IC50 was greater than 40000 nM.

Consider `CNc1ccc2c(c1)N(C(=O)c1cc3cc(OC)c(OC)c(OC)c3[nH]1)CC2CCl` (stereo not drawn), for which half-maximal inhibition (IC50) was put at 220 nM.

Regarding `CNc1cc2c(c3ccccc13)C(CCl)CN2C(=O)c1cc2cc(OC)c(OC)c(OC)c2[nH]1` (stereo not drawn), the IC50 was determined as 0.17 nM.

Molecule `COc1cc2cc(C(=O)N3CC(CCl)c4ccc(N(C)C)cc43)[nH]c2c(OC)c1OC` (stereo not drawn) yielded an IC50 of 280 nM.

`COc1cc2cc(C(=O)N3CC(CCl)c4c3cc(N(C)C)c3ccccc43)[nH]c2c(OC)c1OC` (stereo not drawn) gave an IC50 of 5.6 nM.

With `COc1cc2cc(C(=O)N3CC(CCl)c4ccc(N)cc43)[nH]c2c(OC)c1OC` (stereo not drawn), the IC50 was 320 nM. This IC50 lies about 57-fold higher than the previous one.

Turning to `COc1cc2cc(C(=O)N3CC(CCl)c4c3cc([N+](=O)[O-])c3ccccc43)[nH]c2c(OC)c1OC` (stereo not drawn), the IC50 amounted to 1600 nM.

`COc1cc2cc(C(=O)N3CC(CCl)c4c3cc(N)c3ccccc43)[nH]c2c(OC)c1OC` (stereo not drawn) yielded an IC50 of 0.43 nM. This IC50 lies about 3700-fold lower than the previous one.

These data come from ChEMBL document CHEMBL1130451, “Synthesis and cytotoxicity of amino analogues of the potent DNA alkylating agent seco-CBI-TMI” (Bioorg Med Chem Lett, 1997).
